This is an account of results in ChEMBL document CHEMBL1201862, “PubChem BioAssay data set” (2004).

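Protocol summary: plate cells (96-well), add compound at 5 concentrations, incubate 48 h, interpolate endpoints linearly. The concentration for 50% growth inhibition is given as GI50.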 Active and inactive are the calls of the source. Rule as the data show it: active = GI50 up to about 1.1 µM and inactive = higher.

Test systems include OVCAR-3; SR; SF-268; UO-31; COLO 205; OVCAR-5; SF-539; SN12C; NCI/ADR-RES; IGROV-1; U-251; ACHN; HCT-15; Malme-3M; MDA-MB-231; SK-MEL-5; TK-10; HT-29; OVCAR-8; SNB-19.
Test in all cases: inhibition of tumour cell growth, NCI panel, 48 h

For the molecule `CN(C)c1n/c(=N/Cc2ccncc2)ss1`, the GI50 with OVCAR-3 is > 48.6 µM (inactive); with SR, 6.4 µM (inactive); in the assay on SF-268, 46.2 µM (inactive); in the assay on UO-31 it was > 50 µM (inactive); with COLO 205, 54.5 µM (inactive); with OVCAR-5, 22.6 µM (inactive). Besides, the GI50 was > 46.9 µM (inactive) with SF-539; 19.6 µM (inactive) in the assay on SN12C; > 72.8 µM (inactive) in the assay with NCI/ADR-RES; > 75.5 µM (inactive) in the assay on IGROV-1; 17.9 µM (inactive) in the assay with U-251; 13.5 µM (inactive) with ACHN. Also, the GI50 in the assay with HCT-15 is 45 µM; with Malme-3M, 18.5 µM (inactive); with MDA-MB-231 it was 37.8 µM (inactive); with SK-MEL-5 it was > 10 µM (inactive); in the assay with TK-10, > 66.2 µM (inactive); with HT-29, 19.3 µM (inactive). The GI50 with OVCAR-8 was 17.6 µM (inactive); in the assay on SNB-19, > 71.4 µM (inactive).
